Results on one compound are retold here after paper PMC8658909, “Organometallic small molecule kinase inhibitors – direct incorporation of Re and ^99mTc into Opaganib®” (Chemical Communications (Cambridge, England), 2021).

This assay addresses T1, sphingosine kinase-2 (SK2) (Homo sapiens, UniProt Q9NRA0).
T1 construct: gene SPHK2
T1 sequence (Q9NRA0 1-654): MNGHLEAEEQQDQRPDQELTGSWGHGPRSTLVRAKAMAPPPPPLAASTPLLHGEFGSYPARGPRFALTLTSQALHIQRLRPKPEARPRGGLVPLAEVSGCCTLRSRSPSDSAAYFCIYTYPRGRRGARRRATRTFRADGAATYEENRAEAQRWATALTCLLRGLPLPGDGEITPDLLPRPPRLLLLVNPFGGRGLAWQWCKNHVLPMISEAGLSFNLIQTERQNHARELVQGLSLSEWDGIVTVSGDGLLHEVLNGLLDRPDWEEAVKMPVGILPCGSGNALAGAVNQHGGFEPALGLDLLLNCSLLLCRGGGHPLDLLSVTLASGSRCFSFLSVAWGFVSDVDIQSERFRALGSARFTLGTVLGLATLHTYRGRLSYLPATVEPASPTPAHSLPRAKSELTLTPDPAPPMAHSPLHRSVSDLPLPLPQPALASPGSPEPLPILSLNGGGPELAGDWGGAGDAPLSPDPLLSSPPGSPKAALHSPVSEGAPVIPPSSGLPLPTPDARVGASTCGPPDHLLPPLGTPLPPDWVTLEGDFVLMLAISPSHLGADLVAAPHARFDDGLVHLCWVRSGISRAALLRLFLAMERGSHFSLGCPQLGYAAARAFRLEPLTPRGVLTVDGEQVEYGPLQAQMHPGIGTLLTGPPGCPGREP
The assay is described as follows: SK2 kinase inhibition IC50 (details in ESI). The format is biochemical.

Regarding `O=C(NCc1ccncc1)C12CC3CC(C1)CC(c1ccc(Cl)cc1)(C3)C2` [Opaganib®, Opaganib], the half-inhibitory concentration (IC50) (usually the concentration that gives 50% inhibition) was found to be 15.8 ± 3 µM.
